Measurements published in patent US9560852B2, “Combinations of biological control agents and insecticides or fungicides” (Bayer Intellectual Property GmbH, priority 2008, dated 2017).

What was measured:
Format in all cases: in vivo
[1] = tested on: cotton seed; test: Root system enhancement by neonicotinoid seed treatment, WinRhizo root analysis; settings: 28 days after planting, fungicide base plus insecticide seed treatment
Procedure: In this experiment cotton seed was treated with a fungicide base and one of three commonly used neonicotinoid insecticides: imidacloprid (sold under the trademark GAUCHO 600@0.375 mg ai/seed), clothianidin (sold under the trademark PONCHO 600@0.375 mg ai/seed), and thiomethoxam (sold under the trademark CRUISER@0.34 mg ai/seed).
Fifty seeds from each of the four treatments were planted. […] Seedlings were harvested 28 days after planting and analyzed using the WinRhizo® root analysis system. There was no significant difference in germination.
In Table 1, a comparison of Length, Surface Area, Volume, and Tips/Forks/Crossings, was made through the analysis of 40-45 plants per treatment and by averaging 10 repetitions bracketing the median for each category.

[2] = Soybean seed treatment in soil infested with Soybean Cyst nematodes, height and WinRhizo root system analysis; settings: SCN-infested soil versus standard soil, same treatment
Text: (§1) Soybeans (Variety-S2743-4RR) were planted with a base fungicide package and imidacloprid (sold under the trademark GAUCHO 600@62.5 gm AI/100 kg), a biological nematicide, or a combination of both. The seed were then planted in standard soil and soil infested with Soybean Cyst nematodes. Plants were harvested 28 days later (˜50 plants/treatment/soil type) and compared by height and by a WinRhizo® root system analysis (length, surface area, volume, tips, forks, and crossings (T/F/C))
(§2) The final column of Table 2 compares the total average percent difference in each of the treatments with soybean cyst nematode pressure. The plants with the insecticide alone fared the worst with stunted growth both above and below the soil and a total average reduction of 53%. […] The best overall treatment contained both the biological nematicide and the insecticide and there was only an 8% difference in overall plant development.

[3] = tested on: Soybean Cyst nematodes; test: as above
Text: as §1, §2

[4] = tested on: Soybeans (Variety-S2743-4RR); test: Soybean seed treatment in standard soil, height and WinRhizo root system analysis; settings: 28 days
Text: as §1

[5] = soil infested with Soybean Cyst nematodes (SCN), 28 days

SMILES: CN/C(=N\[N+](=O)[O-])NCc1cnc(Cl)s1 [Clothianidin, clothianidin]
- Length [1]: 88.11 a cm
- SurfArea [1]: 16.77 a cm^2
- T/F/C (Tips/Forks/Crossings) [1]: 93.93 a
- Volume [1]: 0.29 a cm^3

SMILES: O=[N+]([O-])NC1=NCCN1Cc1ccc(Cl)nc1 [Imidacloprid, imidacloprid]
- % difference (total average percent difference with soybean cyst nematode pressure) ([2]; listed as NI): 52.52%
- % difference (total average percent difference with soybean cyst nematode pressure) ([2]; listed as insecticide): 53%
- direct nematicidal activity ([3]; insecticide alone): no direct nematicidal activity
- Height [3, 5]: 19.09 cm
- Length [3, 5]: 167.41 cm
- SurfArea [3, 5]: 44.51 cm^2
- T/F/C [3, 5]: 283.90
- Volume [3, 5]: 0.97 cm^3
- Height [4]: 26.78 cm
- Length [4]: 281.93 cm
- SurfArea [4]: 66.40 cm^2
- T/F/C [4]: 497.68
- Volume [4]: 1.25 cm^3
- Length [1]: 92.56 a cm
- SurfArea [1]: 20.11 a cm^2
- T/F/C (Tips/Forks/Crossings) [1]: 85.60 a
- Volume [1]: 0.35 a cm^3

SMILES: CN1COCN(Cc2cnc(Cl)s2)/C1=N\[N+](=O)[O-] [Thiomethoxam, thiomethoxam]
- Length [1]: 95.01 a cm
- SurfArea [1]: 17.43 a cm^2
- T/F/C (Tips/Forks/Crossings) [1]: 77.17 a
- Volume [1]: 0.28 a cm^3
